Laboratory results as given in patent publication US8435980B2 (AbbVie Inc., priority 2009, dated 2013).

Target: T1, Cdc7 (BEV coexpressed huCDC7/DBF4) (Homo sapiens, UniProt O00311)
T1 construct: made in house; host or cells: BEV (baculovirus expression vector) co-expression; insect cells are implied but no cell line is named
Experiment: Cdc7 enzyme inhibition assay ([33P]ATP, biotinylated peptide substrate, FlashPlate)
Format: biochemical
Settings: for Ki: Table 3, enzyme inhibition data (Ki); for Ki ratio comparisons (Ki Comparative Example/Ki Example): Table 2, Comparative Example lacking the chloro substituent versus the chloro Example
Description: Cdc7 (BEV coexpressed huCDC7/DBF4) is prepared internally. Cdc7 assays are conducted as follows with final concentrations as listed. […] Reactions are quenched after 1 hr by the addition of 90 μL stop buffer (50 mM EDTA, 2M NaCl). […] (Ki) for exemplary compounds.

T1 sequence (O00311 whole entry): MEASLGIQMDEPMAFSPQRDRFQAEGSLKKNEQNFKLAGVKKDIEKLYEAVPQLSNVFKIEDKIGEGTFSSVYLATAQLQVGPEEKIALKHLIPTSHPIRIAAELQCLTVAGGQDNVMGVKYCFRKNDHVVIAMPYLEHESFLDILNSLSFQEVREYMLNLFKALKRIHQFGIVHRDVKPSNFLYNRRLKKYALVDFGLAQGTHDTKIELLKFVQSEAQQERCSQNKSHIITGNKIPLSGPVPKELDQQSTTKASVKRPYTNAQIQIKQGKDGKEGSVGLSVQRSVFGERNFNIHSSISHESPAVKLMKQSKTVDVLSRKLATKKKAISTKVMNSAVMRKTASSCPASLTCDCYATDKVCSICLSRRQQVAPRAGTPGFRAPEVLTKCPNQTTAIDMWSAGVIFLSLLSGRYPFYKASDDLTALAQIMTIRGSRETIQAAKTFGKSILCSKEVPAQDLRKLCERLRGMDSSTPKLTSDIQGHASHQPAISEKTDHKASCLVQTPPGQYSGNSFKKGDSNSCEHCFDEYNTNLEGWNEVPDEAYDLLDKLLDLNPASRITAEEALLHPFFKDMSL
T1 sequence (Q9UBU7 whole entry partner): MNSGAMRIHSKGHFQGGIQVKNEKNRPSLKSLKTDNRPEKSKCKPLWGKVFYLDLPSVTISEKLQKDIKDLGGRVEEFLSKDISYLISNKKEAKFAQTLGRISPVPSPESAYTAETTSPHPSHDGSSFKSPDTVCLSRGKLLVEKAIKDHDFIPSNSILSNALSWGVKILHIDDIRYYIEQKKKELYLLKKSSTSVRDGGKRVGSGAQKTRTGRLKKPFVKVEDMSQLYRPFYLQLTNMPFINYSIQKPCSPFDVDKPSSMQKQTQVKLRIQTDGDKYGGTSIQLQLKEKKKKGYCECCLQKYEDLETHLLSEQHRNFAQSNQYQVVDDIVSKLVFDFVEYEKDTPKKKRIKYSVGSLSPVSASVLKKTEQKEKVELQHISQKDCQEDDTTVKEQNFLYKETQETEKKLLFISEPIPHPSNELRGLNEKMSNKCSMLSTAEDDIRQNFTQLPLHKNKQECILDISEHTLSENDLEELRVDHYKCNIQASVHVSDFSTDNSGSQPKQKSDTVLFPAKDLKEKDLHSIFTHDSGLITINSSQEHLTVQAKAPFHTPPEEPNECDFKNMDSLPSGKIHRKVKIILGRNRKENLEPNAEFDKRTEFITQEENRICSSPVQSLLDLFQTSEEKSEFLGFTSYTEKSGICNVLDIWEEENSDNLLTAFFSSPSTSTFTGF

Ki [µM]	Compound	Ki ratio comparisons (Ki Comparative Example/Ki Example)
< 0.01	CS(=O)(=O)N[C@@H]1CCCC[C@H]1Nc1cc(-c2c[nH]c3ncccc23)cc(Cl)n1 (relative stereo) [Example 110, N-[(trans)-2-{[6-chloro-4-(1H-pyrrolo[2,3-b]pyridin-3-yl)pyridin-2-yl]amino}cyclohexyl]methanesulfonamide]	–
< 0.01	O=C(N[C@@H]1CCCC[C@H]1Nc1cc(-c2c[nH]c3ncccc23)cc(Cl)n1)C1CCN1 (relative stereo) [Example 120, N-[(trans)-2-{[6-chloro-4-(1H-pyrrolo[2,3-b]pyridin-3-yl)pyridin-2-yl]amino}cyclohexyl]azetidine-2-carboxamide]	–
< 0.01	CN1CCC(C(=O)N[C@H]2CC[C@H](Nc3cc(-c4c[nH]c5ncccc45)cc(Cl)n3)CC2)C1 (relative stereo) [Example 125, N-(trans-4-{[6-chloro-4-(1H-pyrrolo[2,3-b]pyridin-3-yl)pyridin-2-yl]amino}cyclohexyl)-1-methylpyrrolidine-3-carboxamide]	–
< 0.01	N[C@H]1CCCC[C@H]1Nc1cc(-c2c[nH]c3ncccc23)cc(Cl)n1 (relative stereo) [Example 131, (cis)-N-[6-chloro-4-(1H-pyrrolo[2,3-b]pyridin-3-yl)pyridin-2-yl]cyclohexane-1,2-diamine]	–
< 0.01	CS(=O)(=O)N[C@@H]1CCCC[C@@H]1Nc1cc(-c2c[nH]c3ncccc23)cc(Cl)n1 (relative stereo) [Example 132, N-[(cis)-2-{[6-chloro-4-(1H-pyrrolo[2,3-b]pyridin-3-yl)pyridin-2-yl]amino}cyclohexyl]methanesulfonamide]	–
< 0.01	CCN1CCC1C(=O)N[C@H]1CC[C@H](Nc2cc(-c3c[nH]c4ncccc34)cc(Cl)n2)CC1 (relative stereo) [Example 134, N-(trans-4-{[6-chloro-4-(1H-pyrrolo[2,3-b]pyridin-3-yl)pyridin-2-yl]amino}cyclohexyl)-1-ethylazetidine-2-carboxamide]	–
< 0.01	O=C(N[C@H]1CC[C@H](Nc2cc(-c3c[nH]c4ncccc34)cc(Cl)n2)CC1)C1CCN1C1CCCC1 (relative stereo) [Example 136, N-(trans-4-{[6-chloro-4-(1H-pyrrolo[2,3-b]pyridin-3-yl)pyridin-2-yl]amino}cyclohexyl)-1-cyclopentylazetidine-2-carboxamide]	–
< 0.01	CN(C)[C@@H]1CCCC[C@@H]1Nc1cc(-c2c[nH]c3ncccc23)cc(Cl)n1 (relative stereo) [Example 140, (cis)-N′-[6-chloro-4-(1H-pyrrolo[2,3-b]pyridin-3-yl)pyridin-2-yl]-N,N-dimethylcyclohexane-1,2-diamine]	–
< 0.01	O=S(=O)(N[C@H]1CC[C@H](Nc2cc(-c3c[nH]c4ncccc34)cc(Cl)n2)CC1)C1CCNC1 (relative stereo) [Example 151, N-(trans-4-{[6-chloro-4-(1H-pyrrolo[2,3-b]pyridin-3-yl)pyridin-2-yl]amino}cyclohexyl)pyrrolidine-3-sulfonamide]	–
< 0.01	NC1CCC(N[C@H]2CC[C@H](Nc3cc(-c4c[nH]c5ncccc45)cc(Cl)n3)CC2)CC1 (relative stereo) [Example 158, trans-N-(4-aminocyclohexyl)-N′-[6-chloro-4-(1H-pyrrolo[2,3-b]pyridin-3-yl)pyridin-2-yl]cyclohexane-1,4-diamine]	–
< 0.01	CCN1CCC(C(=O)N[C@H]2CC[C@H](Nc3cc(-c4c[nH]c5ncc(OC)cc45)cc(Cl)n3)CC2)C1 (relative stereo) [Example 219, N-(trans-4-{[6-chloro-4-(5-methoxy-1H-pyrrolo[2,3-b]pyridin-3-yl)pyridin-2-yl]amino}cyclohexyl)-1-ethylpyrrolidine-3-carboxamide]	–
< 0.01	CCN1CCC(C(=O)N[C@H]2CC[C@H](Nc3cc(-c4c[nH]c5ncccc45)cc(Cl)n3)CC2)C1 (relative stereo) [Example 326, N-(trans-4-{[6-chloro-4-(1H-pyrrolo[2,3-b]pyridin-3-yl)pyridin-2-yl]amino}cyclohexyl)-1-ethylpyrrolidine-3-carboxamide]	–
< 0.01	CN1CCC[C@H]1C(=O)N[C@H]1CC[C@H](Nc2cc(-c3c[nH]c4ncccc34)cc(Cl)n2)CC1 (relative stereo) [Example 336, N-(trans-4-{[6-chloro-4-(1H-pyrrolo[2,3-b]pyridin-3-yl)pyridin-2-yl]amino}cyclohexyl)-1-methylprolinamide]	–
< 0.01	CN1CCCCC1C(=O)N[C@H]1CC[C@H](Nc2cc(-c3c[nH]c4ncccc34)cc(Cl)n2)CC1 (relative stereo) [Example 337, N-(trans-4-{[6-chloro-4-(1H-pyrrolo[2,3-b]pyridin-3-yl)pyridin-2-yl]amino}cyclohexyl)-1-methylpiperidine-2-carboxamide]	–
< 0.01	CN1C(=O)CC[C@H]1C(=O)N[C@H]1CC[C@H](Nc2cc(-c3c[nH]c4ncccc34)cc(Cl)n2)CC1 (relative stereo) [Example 342, N-(trans-4-{[6-chloro-4-(1H-pyrrolo[2,3-b]pyridin-3-yl)pyridin-2-yl]amino}cyclohexyl)-1-methyl-5-oxoprolinamide]	–
< 0.01	CC1CCC(NCC(=O)N[C@H]2CC[C@H](Nc3cc(-c4c[nH]c5ncccc45)cc(Cl)n3)CC2)CC1 (relative stereo) [Example 354, N-(trans-4-{[6-chloro-4-(1H-pyrrolo[2,3-b]pyridin-3-yl)pyridin-2-yl]amino}cyclohexyl)-N~2~-(4-methylcyclohexyl)glycinamide]	–
< 0.01	O=C(NC1CCC(N[C@H]2CC[C@H](Nc3cc(-c4c[nH]c5ncccc45)cc(Cl)n3)CC2)CC1)OCc1ccccc1 (relative stereo) [Example 363, benzyl {4-[(trans-4-{[6-chloro-4-(1H-pyrrolo[2,3-b]pyridin-3-yl)pyridin-2-yl]amino}cyclohexyl)amino]cyclohexyl}carbamate]	–
< 0.01	CC(=O)NC1CCC(N(C(C)=O)[C@H]2CC[C@H](Nc3cc(-c4c[nH]c5ncccc45)cc(Cl)n3)CC2)CC1 (relative stereo) [Example 365, N-[4-(acetylamino)cyclohexyl]-N-(trans-4-{[6-chloro-4-(1H-pyrrolo[2,3-b]pyridin-3-yl)pyridin-2-yl]amino}cyclohexyl)acetamide]	–
< 0.01	CC(c1ccccc1)N1CC(C(=O)N[C@H]2CC[C@H](Nc3cc(-c4c[nH]c5ncccc45)cc(Cl)n3)CC2)C1 (relative stereo) [Example 396, N-(trans-4-{[6-chloro-4-(1H-pyrrolo[2,3-b]pyridin-3-yl)pyridin-2-yl]amino}cyclohexyl)-1-(1-phenylethyl)azetidine-3-carboxamide]	–
< 0.01	CCN1CCC(C(=O)N[C@H]2CC[C@H](Nc3nc(Cl)cc(-c4c[nH]c5ncccc45)n3)CC2)C1 (relative stereo) [Example 462, N-(trans-4-{[4-chloro-6-(1H-pyrrolo[2,3-b]pyridin-3-yl)pyrimidin-2-yl]amino}cyclohexyl)-1-ethylpyrrolidine-3-carboxamide]	–
–	c1cnc2[nH]cc(-c3ccnc(NC4CCCCC4)c3)c2c1 [Comparative Example 1, N-cyclohexyl-4-(1H-pyrrolo[2,3-b]pyridin-3-yl)pyridin-2-amine, reference compound]	10
–	Cc1cc(-c2c[nH]c3ncccc23)cc(NC2CCCCC2)n1 [Comparative Example 2, N-cyclohexyl-6-methyl-4-(1H-pyrrolo[2,3-b]pyridin-3-yl)pyridin-2-amine, reference compound]	14
–	Cc1cc(-c2c[nH]c3ncccc23)cc(NCc2ccccc2)n1 [Comparative Example 3, N-benzyl-6-methyl-4-(1H-pyrrolo[2,3-b]pyridin-3-yl)pyridin-2-amine, reference compound]	75
–	Cc1cc(-c2c[nH]c3ncccc23)cc(N[C@H]2CC[C@H](O)CC2)n1 [Comparative Example 4, Trans-4-{[6-methyl-4-(1H-pyrrolo[2,3-b]pyridin-3-yl)pyridin-2-yl]amino}cyclohexanol, reference compound]	54
–	N#Cc1cc(-c2c[nH]c3ncccc23)cc(NC2CCCCC2)n1 [Comparative Example 5, 6-(cyclohexylamino)-4-(1H-pyrrolo[2,3-b]pyridin-3-yl)pyridine-2-carbonitrile, reference compound]	9
–	N#Cc1cc(-c2c[nH]c3ncccc23)cc(NCc2ccccc2)n1 [Comparative Example 6, 6-(benzylamino)-4-(1H-pyrrolo[2,3-b]pyridin-3-yl)pyridine-2-carbonitrile, reference compound]	5
–	NC(=O)c1cc(-c2c[nH]c3ncccc23)cc(NCc2ccccc2)n1 [Comparative Example 7, 6-(benzylamino)-4-(1H-pyrrolo[2,3-b]pyridin-3-yl)pyridine-2-carboxamide, reference compound]	45
–	N#Cc1cc(-c2c[nH]c3ncccc23)cc(N2CCCCC2)n1 [Comparative Example 8, 6-piperidin-1-yl-4-(1H-pyrrolo[2,3-b]pyridin-3-yl)pyridine-2-carbonitrile, reference compound]	2
–	NC(=O)c1cc(-c2c[nH]c3ncccc23)cc(N2CCCCC2)n1 [Comparative Example 9, 6-piperidin-1-yl-4-(1H-pyrrolo[2,3-b]pyridin-3-yl)pyridine-2-carboxamide, reference compound]	84

Compound	Ki [µM]	Ki ratio comparisons (Ki Comparative Example/Ki Example)
O=C(CNC1CN2CCC1CC2)N[C@H]1CC[C@H](Nc2cc(-c3c[nH]c4ncccc34)cc(Cl)n2)CC1 (relative stereo) [Example 351, N~2~-1-azabicyclo[2.2.2]oct-3-yl-N-(trans-4-{[6-chloro-4-(1H-pyrrolo[2,3-b]pyridin-3-yl)pyridin-2-yl]amino}cyclohexyl)glycinamide]	< 0.01	–
